Source: patent US10611730B2, “Benzimidazolone and benzothiazolone compounds and their use as AMPA receptor modulators” (Janssen Pharmaceutica NV, priority 2015, dated 2020)

target: TARP γ8 dependent AMPA receptor (GluA1o-g8 fusion channel) (Homo sapiens (Human), UniProt P42261+Q8WXS5); experiment: Calcium flux assay (FLIPR), HEK293 cells expressing GRIA1o-CACNG8 fusion; type: cell-based; conditions: inhibition of calcium flux after 15 μM glutamate, read-out: GluR1-γ8 pIC50 (converted)
Text: This assay was used to test compounds for their ability to inhibit TARP γ8 dependent AMPA receptor activity.
An in vitro assay was used to determine the potency of test compounds as inhibitors of the glutamate response of the channel formed by GluA1o-g8. To ensure a 1:1 stoichiometry of GluA1o and g8 subunits in the expressed channel, a fusion of the cDNAs for GRIA1o and CACNG8 was used. […] A clonal cell line in HEK293 cells stably expressing this construct, with a geneticin selection marker, was generated for use in this assay. Cell expressing the GRIAlo-CACNG8 fusion construct were grown in a monolayer in 96- or 384-well microtiter plates. […] The cells were then loaded with a calcium-sensitive dye (Calcium-5 or Calcium-6, Molecular Devices) and the test compounds at a range of concentrations.
The fluorescence in each well was normalized to the fluorescence of negative and positive control wells. […] The responses to glutamate as functions of the test compound concentrations were fitted to a four-parameter logistic function. The fitted parameter corresponding to the midpoint was taken to be the potency of inhibition of the compound.

TARP γ8 dependent AMPA receptor (GluA1o-g8 fusion channel), sequence (P42261 other isoform, or with tags, fused parts or gaps): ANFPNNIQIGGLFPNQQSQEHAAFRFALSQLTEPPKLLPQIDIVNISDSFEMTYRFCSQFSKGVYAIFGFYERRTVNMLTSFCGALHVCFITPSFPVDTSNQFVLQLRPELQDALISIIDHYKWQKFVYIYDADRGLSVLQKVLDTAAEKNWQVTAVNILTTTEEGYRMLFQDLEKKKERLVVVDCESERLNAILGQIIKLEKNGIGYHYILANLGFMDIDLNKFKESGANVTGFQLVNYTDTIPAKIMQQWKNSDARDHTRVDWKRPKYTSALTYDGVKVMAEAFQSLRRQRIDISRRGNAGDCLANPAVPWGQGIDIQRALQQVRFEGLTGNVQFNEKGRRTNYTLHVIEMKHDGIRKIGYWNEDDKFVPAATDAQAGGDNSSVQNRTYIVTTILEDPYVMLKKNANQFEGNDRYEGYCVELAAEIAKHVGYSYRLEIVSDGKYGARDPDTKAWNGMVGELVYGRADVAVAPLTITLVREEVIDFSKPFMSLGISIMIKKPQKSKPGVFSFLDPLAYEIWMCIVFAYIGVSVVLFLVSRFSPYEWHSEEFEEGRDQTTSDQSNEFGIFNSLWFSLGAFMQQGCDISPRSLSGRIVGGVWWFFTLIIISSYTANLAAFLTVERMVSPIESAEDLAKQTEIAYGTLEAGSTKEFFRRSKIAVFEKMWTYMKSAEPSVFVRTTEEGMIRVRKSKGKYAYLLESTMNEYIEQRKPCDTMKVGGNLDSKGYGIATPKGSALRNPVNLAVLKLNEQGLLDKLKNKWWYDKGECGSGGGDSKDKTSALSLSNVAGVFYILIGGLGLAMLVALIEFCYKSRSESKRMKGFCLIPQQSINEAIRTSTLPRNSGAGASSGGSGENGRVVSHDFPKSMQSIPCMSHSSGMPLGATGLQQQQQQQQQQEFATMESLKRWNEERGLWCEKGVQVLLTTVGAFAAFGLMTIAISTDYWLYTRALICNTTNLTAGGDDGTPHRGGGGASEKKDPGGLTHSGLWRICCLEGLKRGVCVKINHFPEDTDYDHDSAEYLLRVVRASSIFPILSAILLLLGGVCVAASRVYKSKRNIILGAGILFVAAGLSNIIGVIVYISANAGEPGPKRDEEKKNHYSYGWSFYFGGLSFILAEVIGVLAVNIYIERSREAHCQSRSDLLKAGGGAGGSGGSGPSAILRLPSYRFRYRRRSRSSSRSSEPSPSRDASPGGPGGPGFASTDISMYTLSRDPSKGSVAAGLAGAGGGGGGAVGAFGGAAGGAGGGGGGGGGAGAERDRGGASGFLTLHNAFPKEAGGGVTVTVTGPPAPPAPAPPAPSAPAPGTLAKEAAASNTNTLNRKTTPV

Row | IC50 | Compound
1 | 1580 nM | Cn1ccc(-c2cccc(-c3ccc4[nH]c(=O)[nH]c4c3)c2Cl)n1 [Example 183, 5-[2-Chloro-3-(1-methylpyrazol-3-yl)phenyl]-1,3-dihydrobenzimidazol-2-one]
2 | 100 nM | Cc1cccc(-c2ccc3[nH]c(=O)[nH]c3c2)c1Cl [Example 64, 5-(2-Chloro-3-methyl-phenyl)-1,3-dihydrobenzimidazol-2-one]
3 | 3160 nM | O=c1[nH]c2ccc(-c3cccc(-n4ccnc4)c3Cl)cc2[nH]1 [Example 187, 5-(2-Chloro-3-imidazol-1-yl-phenyl)-1,3-dihydrobenzimidazol-2-one]
4 | 794 nM | Cc1c(-c2cccc(Cl)c2-c2ccc3[nH]c(=O)[nH]c3c2)cnn1C [Example 177, 5-[2-Chloro-6-(1,5-dimethylpyrazol-4-yl)phenyl]-1,3-dihydrobenzimidazol-2-one]
5 | 126 nM | O=c1[nH]c2ccc(-c3cccc(-c4ccncc4)c3Cl)cc2[nH]1 [Example 184, 5-[2-Chloro-3-(4-pyridyl)phenyl]-1,3-dihydrobenzimidazol-2-one]
6 | 1580 nM | O=Cc1cccc(F)c1-c1ccc2[nH]c(=O)[nH]c2c1 [Example 27, 3-Fluoro-2-(2-oxo-1,3-dihydrobenzimidazol-5-yl)benzaldehyde]
7 | 79.4 nM | CC(C)Oc1cccc(C(F)(F)F)c1-c1ccc2[nH]c(=O)[nH]c2c1 [Example 108, 5-[2-Isopropoxy-6-(trifluoromethyl)phenyl]-1,3-dihydrobenzimidazol-2-one]
8 | 31.6 nM | Cc1c(CN2CCOC(C(F)(F)F)C2)cccc1-c1ccc2[nH]c(=O)[nH]c2c1 (racemic) [Example 151, (±)-5-[2-Methyl-3-[[2-(trifluoromethyl)morpholin-4-yl]methyl]phenyl]-1,3-dihydrobenzimidazol-2-one]
9 | 15.8 nM | Cc1ccc(Cl)c(-c2ccc3[nH]c(=O)[nH]c3c2)c1Cl [Example 23, 5-(2,6-Dichloro-3-methyl-phenyl)-1,3-dihydrobenzimidazol-2-one]
10 | 316 nM | COc1ccc(-c2cccc(CC#N)c2-c2ccc3[nH]c(=O)[nH]c3c2)cc1 [Example 137, 2-[3-(4-Methoxyphenyl)-2-(2-oxo-1,3-dihydrobenzimidazol-5-yl)phenyl]acetonitrile]
11 | 2000 nM | CC(C)Oc1ccccc1-c1ccc2[nH]c(=O)[nH]c2c1 [Example 8, 5-(2-Isopropoxyphenyl)-1,3-dihydrobenzimidazol-2-one]
12 | 2510 nM | COC1CCN(c2cccc(-c3ccc4[nH]c(=O)sc4c3)c2Cl)CC1 [Example 213, 6-(2-Chloro-3-(4-methoxypiperidin-1-yl)phenyl)benzo[d]thiazol-2(3H)-one]
13 | 316 nM | CC(C)Oc1ccc(Cl)cc1-c1ccc2[nH]c(=O)[nH]c2c1 [Example 16, 5-(5-Chloro-2-isopropoxy-phenyl)-1,3-dihydrobenzimidazol-2-one]
14 | 79.4 nM | Cc1c(-c2ccc3[nH]c(=O)[nH]c3c2)cccc1C(F)(F)F [Example 60, 5-[2-Methyl-3-(trifluoromethyl)phenyl]-1,3-dihydrobenzimidazol-2-one]
15 | 126 nM | Cc1c(-c2ccc3[nH]c(=O)sc3c2)cccc1-c1ncon1 [Example 207, 6-[2-Methyl-3-(1,2,4-oxadiazol-3-yl)phenyl]-3H-1,3-benzothiazol-2-one]
16 | 39.8 nM | COc1cccc(OCc2ccccc2)c1-c1ccc2[nH]c(=O)[nH]c2c1 [Example 105, 5-(2-Benzyloxy-6-methoxy-phenyl)-1,3-dihydrobenzimidazol-2-one]
17 | 1000 nM | O=c1[nH]c2ccc(-c3c(Cl)cccc3CN3CCOCC3)cc2[nH]1 [Example 145, 5-[2-Chloro-6-(morpholinomethyl)phenyl]-1,3-dihydrobenzimidazol-2-one]
18 | 501 nM | Cc1cccc(C#N)c1-c1ccc2[nH]c(=O)[nH]c2c1 [Example 38, 3-Methyl-2-(2-oxo-1,3-dihydrobenzimidazol-5-yl)benzonitrile]
19 | 3160 nM | Cc1c(C(=O)N(C)C)cccc1-c1ccc2[nH]c(=O)[nH]c2c1 [Example 81, N,N,2-Trimethyl-3-(2-oxo-1,3-dihydrobenzimidazol-5-yl)benzamide]
20 | 1580 nM | Cc1ccc(C#N)cc1-c1ccc2[nH]c(=O)[nH]c2c1 [Example 39, 4-Methyl-3-(2-oxo-1,3-dihydrobenzimidazol-5-yl)benzonitrile]
21 | 20 nM | Cc1c(-c2ccc3[nH]c(=O)[nH]c3c2)cccc1-c1noc(-c2ccncc2)n1 [Example 75, 5-[2-Methyl-3-[5-(4-pyridyl)-1,2,4-oxadiazol-3-yl]phenyl]-1,3-dihydrobenzimidazol-2-one]

Row | IC50 | Compound
22 | 10 nM | O=c1[nH]c2ccc(-c3c(Cl)cccc3OCC3CC3)cc2[nH]1 [Example 92, 5-[2-Chloro-6-(cyclopropylmethoxy)phenyl]-1,3-dihydrobenzimidazol-2-one]
23 | 316 nM | CC(C)Oc1ccc(C(F)(F)F)cc1-c1ccc2[nH]c(=O)[nH]c2c1 [Example 22, 5-[2-Isopropoxy-5-(trifluoromethyl)phenyl]-1,3-dihydrobenzimidazol-2-one]
24 | 3980 nM | Cc1c(-c2ccc3[nH]c(=O)sc3c2)cccc1-c1noc(C2CC2)n1 [Example 74, 6-[3-(5-Cyclopropyl-1,2,4-oxadiazol-3-yl)-2-methyl-phenyl]-3H-1,3-benzothiazol-2-one]
25 | 15.8 nM | N#Cc1ccc(Cl)c(-c2ccc3[nH]c(=O)[nH]c3c2)c1OC(F)(F)F [Example 209, 4-Chloro-3-(2-oxo-1,3-dihydrobenzimidazol-5-yl)-2-(trifluoromethoxy)benzonitrile]
26 | 39.8 nM | O=c1[nH]c2ccc(-c3cccc(C(F)(F)F)c3Cl)cc2[nH]1 [Example 61, 5-[2-Chloro-3-(trifluoromethyl)phenyl]-1,3-dihydrobenzimidazol-2-one]
27 | 1260 nM | N#Cc1c(-c2ccc3[nH]c(=O)[nH]c3c2)cccc1C(F)(F)F [Example 65, 2-(2-Oxo-1,3-dihydrobenzimidazol-5-yl)-6-(trifluoromethyl)benzonitrile]
28 | 100 nM | Cc1cccc(-c2ccc(F)cc2)c1-c1ccc2[nH]c(=O)[nH]c2c1 [Example 181, 5-[2-(4-Fluorophenyl)-6-methyl-phenyl]-1,3-dihydrobenzimidazol-2-one]
29 | 2000 nM | N#CCc1cccc(-c2ccc3[nH]c(=O)[nH]c3c2)c1Cl [Example 130, 2-[2-Chloro-3-(2-oxo-1,3-dihydrobenzimidazol-5-yl)phenyl]acetonitrile]
30 | 631 nM | O=c1[nH]c2ccc(-c3c(Cl)cccc3C(F)(F)F)cc2[nH]1 [Example 12, 5-[2-Chloro-6-(trifluoromethyl)phenyl]-1,3-dihydrobenzimidazol-2-one]
31 | 398 nM | O=c1[nH]c2ccc(-c3ccccc3OCC3CC3)cc2[nH]1 [Example 13, 5-[2-(Cyclopropylmethoxy)phenyl]-1,3-dihydrobenzimidazol-2-one]
32 | 63.1 nM | O=c1[nH]c2ccc(-c3c(Cl)cccc3OCc3ccccc3)cc2[nH]1 [Example 99, 5-(2-Benzyloxy-6-chloro-phenyl)-1,3-dihydrobenzimidazol-2-one]
33 | 501 nM | O=c1[nH]c2ccc(-c3c(Cl)cncc3Cl)cc2[nH]1 [Example 69, 5-(3,5-Dichloro-4-pyridyl)-1,3-dihydrobenzimidazol-2-one]
34 | 631 nM | N#Cc1cccc(Cl)c1-c1ccc2[nH]c(=O)[nH]c2c1 [Example 56, 3-Chloro-2-(2-oxo-1,3-dihydrobenzimidazol-5-yl)benzonitrile]
35 | 126 nM | O=c1[nH]c2ccc(-c3c(Cl)cccc3NCc3ccoc3)cc2[nH]1 [Example 87, 5-[2-Chloro-6-(3-furylmethylamino)phenyl]-1,3-dihydrobenzimidazol-2-one]
36 | 20 nM | Cc1c(-c2ccc3[nH]c(=O)[nH]c3c2)cccc1-c1nnc(C(F)(F)F)o1 [Example 198, 5-[2-Methyl-3-[5-(trifluoromethyl)-1,3,4-oxadiazol-2-yl]phenyl]-1,3-dihydrobenzimidazol-2-one]
37 | 1260 nM | COc1cccc(OC)c1-c1ccc2[nH]c(=O)[nH]c2c1 [Example 7, 5-(2,6-Dimethoxyphenyl)-1,3-dihydrobenzimidazol-2-one]
38 | 50.1 nM | CC(C)(C)COc1cccc(Cl)c1-c1ccc2[nH]c(=O)[nH]c2c1 [Example 98, 5-[2-Chloro-6-(2,2-dimethylpropoxy)phenyl]-1,3-dihydrobenzimidazol-2-one]
39 | 251 nM | Cc1cccc(-c2ccc3[nH]c(=O)[nH]c3c2)c1C [Example 1, 5-(2,3-Dimethylphenyl)-1,3-dihydrobenzimidazol-2-one]
40 | 251 nM | O=c1[nH]c2ccc(-c3cccc(Cl)c3C(F)(F)F)cc2[nH]1 [Example 34, 5-[3-Chloro-2-(trifluoromethyl)phenyl]-1,3-dihydrobenzimidazol-2-one]
41 | 79.4 nM | C[C@H](Oc1cccc(Cl)c1-c1ccc2[nH]c(=O)[nH]c2c1)C(F)(F)F (single isomer, unassigned) [Example 120, (S*)-5-[2-Chloro-6-(2,2,2-trifluoro-1-methyl-ethoxy)phenyl]-1,3-dihydrobenzimidazol-2-one]
42 | 6310 nM | COC(=O)c1cccc(-c2ccc3[nH]c(=O)[nH]c3c2)c1OC [Example 48, Methyl 2-methoxy-3-(2-oxo-1,3-dihydrobenzimidazol-5-yl)benzoate]

Row | Compound | IC50
43 | COc1cccc(OC(C)(C)C)c1-c1ccc2[nH]c(=O)[nH]c2c1 [Example 117, 5-(2-tert-Butoxy-6-methoxy-phenyl)-1,3-dihydrobenzimidazol-2-one] | 1000 nM
